For one assay, the target named is EZH2 (Homo sapiens, UniProt Q15910). In words: EZH2 assay: rPRC2 with biotinylated oligonucleosome substrates and 3H SAM, FlashPlate scintillation counting, IC50. In kind it is biochemical. As to conditions: rPRC2, biotinylated oligonucleosome substrates, 3H SAM; read-out: EZH2 IC50. In a few lines:
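rPRC2 (2 nM EZH2) pre-incubated 20 min with compound (80 to 0.16 uM, ten 2-fold steps), then 60 min reaction with 0.2 uM 3H SAM, 0.2 uM biotinylated oligonucleosomes, 3.6 uM H3K27me3 peptide in Tris pH 8.5. SAH/EDTA quench; 4-parameter IC50 fit.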

In another assay the target is Y641N EZH2 (Homo sapiens, UniProt Q15910, Y641N). As to the kind of experiment: Y641N EZH2 assay: performed as the EZH2 assay, using reconstituted H3K27Me2 oligonucleosomes as substrate. In kind it is biochemical. As to the method: Assays were carried out by mixing rPRC2 together with biotinylated oligonucleosome substrates in the presence of the radio-labeled enzyme co-factor, S-adenosyl-L-methionine (^3H SAM) (Perkin Elmer) and monitoring the enzymatically mediated transfer of tritiated methyl groups from ^3H SAM to histone lysine residues. The amount of resulting tritated methylhistone product was measured by first capturing the biotinylated oligonuclesomes in streptavidin (SAV) coated FlashPlates (Perkin Elmer), followed by a wash step to remove un-reacted ^3H SAM, and then counting on a TopCount NXT 384 well plate scintillation counter (Perkin Elmer). The final assay conditions for EZH2 were as follows: 50 mM Tris Buffer pH 8.5, 1 mM DTT, 69 uM Brij-35 detergent, 5.0 mM MgCl2, 0.1 mg/mL BSA, 0.2 uM ^3H SAM, 0.2 uM biotinylated oligonucleosomes, 3.6 uM H3K27me3 peptide and 2 nM EZH2.
Compound IC50 measurements were obtained as follows: Compounds were first dissolved in 100% DMSO as 10 mM stock solutions. […] A 12.5 uL volume of the HMT enzyme, H3K27me3 peptide and oligonucleosome substrate in assay buffer was added to each well of the assay plate using a Multidrop Combi (ThermoFisher). Compounds were pre-incubated with the enzyme for 20 min, followed by initiation of the methyltransferase reaction by addition of 12.5 uL of 3H SAM in assay buffer (final volume=25 uL). The final concentrations of compounds ranged from a top default concentration of 80 uM down to 0.16 uM in ten 2-fold dilution steps. Reactions were carried out for 60 minutes and quenched with 20 uL per well of 1.96 mM SAH, 50 mM Tris PH 8.5, 200 mM EDTA. Stopped reactions were transferred to SAV coated Flashplates (Perkin Elmer), incubated for 120 min, washed with a plate washer, and then read on the TopCount NXT (1.0 min/well) to measure the amount of methylhistone product formed during the reaction. The amount of methylhistone product was compared with the amount of product formed in the 0% and 100% inhibition control wells allowing the calculation of % Inhibition in the presence of the individual compounds at various concentrations. IC50's were computed using a 4 parameter fit non-linear curve fitting software package (XLFIT, part of the database package, ActivityBase (IDBS)) where the four parameters were IC50, Hill slope, pre-transitional baseline (0% INH), and post-transitional baseline (100% INH); with the latter two parameters being fixed to zero and 100%, respectively, by default.

Y641N EZH2, sequence (Q15910 whole entry Y641N): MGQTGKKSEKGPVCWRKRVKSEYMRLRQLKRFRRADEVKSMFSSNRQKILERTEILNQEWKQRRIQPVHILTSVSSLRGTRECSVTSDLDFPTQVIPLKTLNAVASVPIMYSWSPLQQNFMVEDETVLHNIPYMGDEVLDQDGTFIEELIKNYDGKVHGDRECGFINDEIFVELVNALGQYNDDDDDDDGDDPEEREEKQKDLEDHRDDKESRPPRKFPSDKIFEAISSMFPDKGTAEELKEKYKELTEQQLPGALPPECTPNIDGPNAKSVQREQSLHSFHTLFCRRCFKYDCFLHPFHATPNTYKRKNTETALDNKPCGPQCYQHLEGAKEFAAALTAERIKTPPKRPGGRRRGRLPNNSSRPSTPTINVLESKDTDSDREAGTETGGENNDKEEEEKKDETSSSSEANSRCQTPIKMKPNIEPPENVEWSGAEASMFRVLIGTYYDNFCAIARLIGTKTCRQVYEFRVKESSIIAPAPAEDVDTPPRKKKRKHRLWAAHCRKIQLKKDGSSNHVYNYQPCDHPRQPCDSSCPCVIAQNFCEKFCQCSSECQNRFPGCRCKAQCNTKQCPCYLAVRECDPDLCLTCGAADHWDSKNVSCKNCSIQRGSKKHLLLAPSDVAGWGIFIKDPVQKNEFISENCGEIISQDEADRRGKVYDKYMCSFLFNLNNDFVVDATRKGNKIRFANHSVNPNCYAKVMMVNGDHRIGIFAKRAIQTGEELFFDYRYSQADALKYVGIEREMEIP
Y641N EZH2, sequence (O75530 whole entry partner): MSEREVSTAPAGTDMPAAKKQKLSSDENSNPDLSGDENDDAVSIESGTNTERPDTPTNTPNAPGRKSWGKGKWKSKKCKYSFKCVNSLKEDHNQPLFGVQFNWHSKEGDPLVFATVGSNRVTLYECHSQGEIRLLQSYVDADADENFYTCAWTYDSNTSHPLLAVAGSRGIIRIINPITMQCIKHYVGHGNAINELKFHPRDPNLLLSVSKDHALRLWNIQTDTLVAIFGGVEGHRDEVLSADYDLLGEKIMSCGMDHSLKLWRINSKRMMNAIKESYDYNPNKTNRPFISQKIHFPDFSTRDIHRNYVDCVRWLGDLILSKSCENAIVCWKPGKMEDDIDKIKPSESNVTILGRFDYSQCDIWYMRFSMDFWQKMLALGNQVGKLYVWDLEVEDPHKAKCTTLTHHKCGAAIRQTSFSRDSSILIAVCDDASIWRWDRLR
Y641N EZH2, sequence (Q15022 whole entry partner): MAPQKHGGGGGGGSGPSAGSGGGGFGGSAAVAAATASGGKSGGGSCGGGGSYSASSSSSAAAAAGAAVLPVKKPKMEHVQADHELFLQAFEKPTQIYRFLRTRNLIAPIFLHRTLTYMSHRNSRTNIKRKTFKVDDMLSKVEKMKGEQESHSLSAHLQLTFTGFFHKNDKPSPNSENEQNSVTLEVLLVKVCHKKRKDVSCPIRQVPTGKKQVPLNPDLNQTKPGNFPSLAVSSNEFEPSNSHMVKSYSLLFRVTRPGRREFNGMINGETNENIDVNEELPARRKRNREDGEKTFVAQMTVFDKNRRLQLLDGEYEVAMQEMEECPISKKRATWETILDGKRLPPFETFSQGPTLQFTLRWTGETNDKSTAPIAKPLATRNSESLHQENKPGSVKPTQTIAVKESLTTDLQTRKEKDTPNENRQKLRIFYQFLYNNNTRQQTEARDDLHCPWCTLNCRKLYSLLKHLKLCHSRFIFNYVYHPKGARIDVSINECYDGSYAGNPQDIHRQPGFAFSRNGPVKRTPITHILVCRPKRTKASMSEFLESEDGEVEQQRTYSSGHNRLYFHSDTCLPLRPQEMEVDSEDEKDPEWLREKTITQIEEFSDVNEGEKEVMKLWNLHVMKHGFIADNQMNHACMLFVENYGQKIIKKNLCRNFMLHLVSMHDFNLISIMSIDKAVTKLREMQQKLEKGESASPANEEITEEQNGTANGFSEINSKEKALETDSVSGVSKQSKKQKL
EZH2, sequence (Q15910 whole entry): as the sequence (Q15910 whole entry Y641N) above, with N641Y counted along it
EZH2, sequence (O75530 whole entry partner): as the sequence (O75530 whole entry partner) above
EZH2, sequence (Q15022 whole entry partner): as the sequence (Q15022 whole entry partner) above

As a reminder, the IC50 is the concentration that inhibits the measured activity by half. Turning to `CN(C)c1ccc(-c2cccc(OCc3ccc(C(=O)NC4CC(C)(C)NC(C)(C)C4)cc3)c2)cn1` [Compound I-154], the IC50 at EZH2 and against Y641N EZH2 was 20 to 80 µM in each case.

For `CC1(C)CC(N2CCc3cc(Oc4ccccc4C#N)c(Cl)cc3C2=O)CC(C)(C)N1` [Compound I-163], the IC50 on EZH2 was 20 to 80 µM; against Y641N EZH2, > 80 µM.

As to `CC(=O)Nc1ccc(-c2cccc(OCc3ccc(C(=O)NC4CC(C)(C)NC(C)(C)C4)cc3)c2)cc1` [Compound I-167], the IC50 on EZH2 and at Y641N EZH2 was 20 to 80 µM in each case.

For the molecule `CC1(C)CC(NC(=O)c2ccc(Oc3cccc4cnccc34)cc2)CC(C)(C)N1` [Compound I-171], the IC50 at EZH2 was < 5 µM; against Y641N EZH2, 20 to 80 µM.

Consider `CC1(C)CC(NC(=O)c2ccc(C#Cc3ccccc3)cc2)CC(C)(C)N1` [Compound I-173], for which the IC50 at EZH2 and against Y641N EZH2 was 5 to 20 µM in each case.

Regarding `CC1(C)CC(NC(=O)c2ccc(COc3cccc(-c4ccc5[nH]ccc5c4)c3)cc2)CC(C)(C)N1` [Compound I-183], the IC50 on EZH2 and on Y641N EZH2 was 20 to 80 µM throughout.

Turning to `CC1(C)CC(NC(=O)c2ccc(COc3ccccc3Br)cc2)CC(C)(C)N1` [Compound I-185], the IC50 was 20 to 80 µM at EZH2 and > 80 µM on Y641N EZH2.

For `CC1(C)CC(NC(=O)c2ccc(Oc3ccccc3C#N)c(Br)c2)CC(C)(C)N1` [Compound I-186], the concentration for half-maximal inhibition (IC50) on EZH2 was < 5 µM; against Y641N EZH2 it was 5 to 20 µM.

As for `CC1(C)CC(NC(=O)c2ccc(Oc3ccccc3C#N)c(CCc3ccccc3)c2)CC(C)(C)N1` [Compound I-199], the results for the IC50 on EZH2 and on Y641N EZH2 were < 5 µM and 5 to 20 µM, respectively.

For the molecule `CC1(C)CC(NC(=O)c2ccc(Oc3ccccc3-c3cccnc3)c(Cl)c2)CC(C)(C)N1` [Compound I-207], the IC50 at EZH2 is < 5 µM; at Y641N EZH2, 20 to 80 µM.

On to `CC1(C)CC(NC(=O)c2ccc(COc3cccc(Br)c3)c(Br)c2)CC(C)(C)N1` [Compound I-216], for which the IC50 at EZH2 lay in the range of 5 to 20 µM; at Y641N EZH2 it was 20 to 80 µM.

Turning to `CC1(C)CC(NC(=O)c2ccc(Oc3ccccc3C#N)c(F)c2)CC(C)(C)N1` [Compound I-217], the figures for the 50% inhibitory concentration (IC50) at EZH2 and against Y641N EZH2 were < 5 µM and 20 to 80 µM, respectively.

In the case of `Cc1cc(C(=O)NC2CC(C)(C)NC(C)(C)C2)ccc1Oc1ccccc1C#N` [Compound I-223], the IC50 at EZH2 was < 5 µM; at Y641N EZH2, 5 to 20 µM.

With `CC1(C)CC(NC(=O)c2ccc(Oc3cccc(-c4ccc(N)nc4)c3)cc2)CC(C)(C)N1` [Compound I-228], the IC50 on EZH2 is 5 to 20 µM; against Y641N EZH2, > 80 µM.

As to `CC1(C)CC(NC(=O)c2ccc(Oc3cccc(Br)c3C#N)c(Cl)c2)CC(C)(C)N1` [Compound I-254], the IC50 on EZH2 and on Y641N EZH2 was < 5 µM each time.

On to `CC1(C)CC(NC(=O)c2ccc(Oc3cccc(Cl)c3C#N)c(Cl)c2)CC(C)(C)N1` [Compound I-256], for which the IC50 on EZH2 and on Y641N EZH2 was < 5 µM in each case.

Turning to `CC1(C)CC(NC(=O)c2ccc(Oc3cccc(I)c3C#N)c(Cl)c2)CC(C)(C)N1` [Compound I-257], the IC50 at EZH2 and on Y641N EZH2 was < 5 µM each time.

With `CC1(C)CC(NC(=O)c2ccc(Oc3cccc(F)c3C#N)c(Cl)c2)CC(C)(C)N1` [Compound I-258], the IC50 on EZH2 and on Y641N EZH2 was < 5 µM in each case.

On to `Cc1cc(C(=O)NC2CC(C)(C)NC(C)(C)C2)ccc1Oc1cccc(Br)c1C#N` [Compound I-259], for which the IC50 at EZH2 and against Y641N EZH2 was < 5 µM in each case.

For the molecule `Cc1cc(C(=O)NC2CC(C)(C)NC(C)(C)C2)ccc1Oc1cccc(-c2ccccc2)c1C#N` [Compound I-260], the results for the IC50 on EZH2 and against Y641N EZH2 were < 5 µM and 20 to 80 µM, respectively.

`Cc1cc(C(=O)NC2CC(C)(C)NC(C)(C)C2)ccc1Oc1cccc(-c2cn[nH]c2)c1C#N` [Compound I-262]: the IC50 on EZH2 and at Y641N EZH2 was < 5 µM throughout.

As to `CCc1cccc(Oc2ccc(C(=O)NC3CC(C)(C)NC(C)(C)C3)cc2C)c1C#N` [Compound I-266], the IC50 on EZH2 and against Y641N EZH2 was < 5 µM throughout.

Turning to `CC1(C)CC(NC(=O)c2ccc(Oc3cccc(NCC(N)=O)c3)c(Cl)c2)CC(C)(C)N1` [Compound I-304], the IC50 on EZH2 is 5 to 20 µM; against Y641N EZH2 it was > 80 µM.

For the molecule `CC1(C)CC(NC(=O)c2ccc(Oc3cccc(-c4cn[nH]c4)c3C#N)c(Cl)c2)CC(C)(C)N1` [Compound I-307], the IC50 at EZH2 and on Y641N EZH2 was < 5 µM throughout.

Take `CC1(C)CC(NC(=O)c2ccc(Oc3cccc(-c4cccnc4)c3C#N)c(Cl)c2)CC(C)(C)N1` [Compound I-308]: the IC50 at EZH2 and at Y641N EZH2 was < 5 µM in each case.

Take `CC1(C)CC(NC(=O)c2ccc(Oc3cccc(-c4ccc(N)nc4)c3C#N)c(Cl)c2)CC(C)(C)N1` [Compound I-312]: the half-maximal inhibitory concentration (IC50) at EZH2 and against Y641N EZH2 was < 5 µM each time.

`CC1(C)CC(NC(=O)c2ccc(Oc3ccccc3-c3cnc4ccccc4c3)c(Cl)c2)CC(C)(C)N1` [Compound I-320]: the IC50 at EZH2 was < 5 µM; at Y641N EZH2, 5 to 20 µM.

As for `CC1(C)CC(NC(=O)c2ccc(Oc3cccc4cnccc34)c(Cl)c2)CC(C)(C)N1` [Compound I-324], the results for the IC50 at EZH2 and against Y641N EZH2 were < 5 µM and 5 to 20 µM, respectively.

Turning to `CC(Oc1cccc(Oc2ccc(C(=O)NC3CC(C)(C)NC(C)(C)C3)cc2Cl)c1C#N)C(N)=O` (centres unmarked) [Compound I-326], the values for the IC50 on EZH2 and against Y641N EZH2 were 5 to 20 µM and > 80 µM, respectively.

`CC1(C)CC(NC(=O)c2ccc(-n3ncc4ccccc43)c(Cl)c2)CC(C)(C)N1` [Compound I-327]: the IC50 was < 5 µM on EZH2 and 5 to 20 µM against Y641N EZH2.

Turning to `CC1(C)CC(NC(=O)c2ccc(/C=C/c3ccccc3)cc2)CC(C)(C)N1` [Compound I-330], the IC50 at EZH2 is 20 to 80 µM; against Y641N EZH2, > 80 µM.

Regarding `COc1cccc(Oc2ccc(C(=O)NC3CC(C)(C)NC(C)(C)C3)cc2Cl)c1C#N` [Compound I-333], the IC50 at EZH2 is < 5 µM; against Y641N EZH2, 5 to 20 µM.

For `CN(C)c1cccc(Oc2ccc(C(=O)NC3CC(C)(C)NC(C)(C)C3)cc2Cl)c1C#N` [Compound I-334], the IC50 at EZH2 was < 5 µM; at Y641N EZH2, 5 to 20 µM.

Consider `CC1(C)CC(NC(=O)c2ccc(Oc3cccc(-c4ccncc4)c3C#N)c(Cl)c2)CC(C)(C)N1` [Compound I-339], for which the IC50 on EZH2 and against Y641N EZH2 was < 5 µM throughout.

Regarding `CC1(C)CC(NC(=O)c2ccc(Oc3cccc(-c4cncnc4)c3C#N)c(Cl)c2)CC(C)(C)N1` [Compound I-340], the results for the IC50 on EZH2 and against Y641N EZH2 were < 5 µM and 5 to 20 µM, respectively.

For the molecule `CCc1cccc(Oc2ccc(C(=O)NC3CC(C)(C)NC(C)(C)C3)cc2Cl)c1-c1ccncc1` [Compound I-342], the figures for the IC50 on EZH2 and at Y641N EZH2 were 20 to 80 µM and > 80 µM, respectively.

On to `CCc1cccc(Oc2ccc(C(=O)NC3CC(C)(C)NC(C)(C)C3)cc2Cl)c1-c1cccnc1` [Compound I-343], for which the IC50 on EZH2 and at Y641N EZH2 was 20 to 80 µM in each case.

On to `CN(C(=O)c1ccc(Oc2ccccc2C#N)c(Cl)c1)C1CC(C)(C)NC(C)(C)C1` [Compound I-344], for which the results for the IC50 on EZH2 and at Y641N EZH2 were 5 to 20 µM and > 80 µM, respectively.

As to `CC1(C)CC(NC(=O)c2ccc(Oc3cccc(-c4cn[nH]c4)c3C#N)c(Br)c2)CC(C)(C)N1` [Compound I-347], the IC50 on EZH2 and against Y641N EZH2 was < 5 µM throughout.

Take `CC1(C)CC(N2Cc3cc(Oc4ccccc4C#N)c(Cl)cc3C2=O)CC(C)(C)N1` [Compound I-356]: the IC50 at EZH2 and on Y641N EZH2 was > 80 µM throughout.

As for `Cc1ccc(-c2cccc(Oc3ccc(C(=O)NC4CC(C)(C)NC(C)(C)C4)cc3Cl)c2C#N)cn1` [Compound I-362], the IC50 on EZH2 is < 5 µM; against Y641N EZH2, 5 to 20 µM.

In the case of `CC1(C)CC(NC(=O)c2ccc(Oc3cccc(-c4cccnc4)c3C#N)c(Br)c2)CC(C)(C)N1` [Compound I-364], the IC50 on EZH2 and against Y641N EZH2 was < 5 µM throughout.

Take `CC1(C)CC(NC(=O)c2ccc(Oc3cccc(-c4ccccn4)c3C#N)c(Cl)c2)CC(C)(C)N1` [Compound I-367]: the IC50 at EZH2 and on Y641N EZH2 was < 5 µM throughout.

Source of the values: patent US20130310379A1, “MODULATORS OF METHYL MODIFYING ENZYMES, COMPOSITIONS AND USES THEREOF” (CONSTELLATION PHARMACEUTICALS, priority 2010, published 2013).
